Assay in all cases: MTT assay
Assay type in all cases: cell-based
(In general: Formazan colour is commonly taken as a measure of viable cells.)

The subject of one assay is AGS. The note with it: Homo sapiens, 24 h of treatment. The protocol: (§1) The NCI-60 screening protocol utilizes the sulforhodamine B (SRB) assay following 48 h of compound exposure. […] The MTT assay was performed on eleven cancer cell lines: human breast cancer (MDA-MB-231, MCF-7, HCC 1954), human gastric cancer (AGS), human colorectal adenocarcinoma (HT-29, DLD-1, HCT 116), human neuroblastoma (SH SY5Y), and human leukemia (JURKAT, RMPI 8866, K-562) cell lines. The study was conducted in triplicate at the following seven concentrations: 0.62, 1.25, 2.5, 5, 10, 20, and 40 μM.
(§2) The selected cell lines were seeded into 96-well plates and cultured in accordance with the previously described methodology. Then, the cells were treated with all tested compounds and DOX at concentrations of 0.625, 1.25, 2.5, 5.0, 10.0, 20.0, and 40.0 μM for 24 h. A solution of 3-(4,5-dimethyl-2-thiazolyl)-2,5-diphenyl-2H-tetrazolium bromide (Sigma-Aldrich, St. Louis, MO, USA) in phosphate-buffered saline without calcium and magnesium (Corning, Kennebunk, ME, USA) at a concentration of 5 mg/mL was used to carry out MTT assay. After incubation, 20 μL of the prepared MTT solution was added, and then the cells were incubated at 37 °C for two hours. Afterwards, the cells were lysed using 100 μL of lysing buffer (comprising 25 mM HCl, 2% acetic acid, 3% DMF, and 5% SDS, with a pH of 4.7). The absorbance was determined at a wavelength of 570 nm using an Absorbance 96 microplate reader (Byonoy GmbH, Hamburg, Germany).

For another assay, the system named is DLD-1. The note with it: Homo sapiens; DLD-1, 24 h of treatment. The protocol: as §1, §2
The subject of the next assay is HCC-1954. As to conditions: Homo sapiens, HCC1954; HCC-1954, 24 h of treatment. The protocol: as §1, §2
The subject of a further assay is HCT-116. As to conditions: Homo sapiens; HCT-116, 24 h of treatment. Here is the method: as §1, §2
The subject of the next assay is HT-29. As to conditions: Homo sapiens; HT-29, 24 h of treatment. The protocol:
as §1, §2

The subject of another assay is Jurkat. The note with it: Homo sapiens, 24 h of treatment. Here is the method: as §1, §2
The subject of the next assay is K562. As to conditions: Homo sapiens; K562, 24 h of treatment. Here is the method: as §1, §2
A further assay concerns MCF-7. The note with it: Homo sapiens, MCF7; MCF-7, 24 h of treatment. Here is the method: as §1, §2
The next assay concerns MDA-MB-231. As to conditions: Homo sapiens; MDA-MB-231, 24 h of treatment. The protocol: as §1, §2
For another assay, the system named is RPMI 8866. As to conditions: Homo sapiens; RPMI 8866, 24 h of treatment. Here is the method: as §1, §2
Another assay deals with SH SY5Y. The note with it: Homo sapiens, 24 h of treatment. Here is the method:
as §1, §2

This is an account of results in paper PMC12655351, “Synthesis and Anticancer Activity Evaluation of New 5-((5-Nitrofuran-2-yl)allylidene)-2-thioxo-4-thiazolidinones” (Pharmaceuticals, 2025).

Molecules are shown by their SMILES.

A word on the IC50: it is the midpoint of a concentration-inhibition curve. Low readings indicate inhibition by little substance, high ones a need for much substance. Take `CC(C(=O)O)N1C(=O)/C(=C/C=C/c2ccc([N+](=O)[O-])o2)SC1=S` (centres unmarked) [2b, 2-((Z)-5-((E)-3-(5-Nitrofuran-2-yl)allylidene)-4-oxo-2-thioxothiazolidin-3-yl)propanoic acid]: the half-inhibitory concentration (IC50) with AGS was 12.1 µM; in the assay with DLD-1 it was 9.98 µM; in the assay on HCC-1954, 12.5 µM; in the assay with HCT-116 it was 39 µM; in the assay with HT-29, 24.5 µM; in the assay on Jurkat, 4.78 µM. In addition, the IC50 with K562 was greater than 40 µM; in the assay on MCF-7 it was 11.3 µM; in the assay on MDA-MB-231, 25.4 µM; in the assay on RPMI 8866 it was 29 µM; with SH SY5Y, 30.6 µM.
